Where two headings read alike, the source gives them in different places.

This note sets out measurements from patent publication US20060063784A1, “Method of using substituted pyrazolo [1,5-a] pyrimidines” (priority 2004, published 2006).

In experiment [1] the test system is 80S14 (p21-deficient) cells. The experiment is described as follows: Cytotoxicity assay using isogenic cell lines: IC50 in 80S14 (p21-deficient) cells, SRB. To be noted: Homo sapiens. In kind it is cell-based, human. A digest of the protocol:
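IC50 is the concentration halving proliferation relative to untreated controls, read from SRB absorbance (560 nm) after TCA fixation. Test agent dilutions (5 pM–50 μM or 170 pg/ml–10 μg/ml) were left on p21-deficient 80S14 cells (12,000/well, pre-incubated overnight) for 5 days at 37 °C.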

For the next experiment, the system named is LoVo Colon cell line. The experiment is described as follows: Cytotoxicity assay using LoVo colon cell line, SRB. In kind it is cell-based. Particulars: read-out: Inhibition of LoVo. A digest of the protocol: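 Growth inhibition read by sulforhodamine B after 4-day compound exposure at 37 °C. Colon LoVo cells plated at 4000 per well in RPMI/10% FBS a day earlier; doses ranged 5 pM-20 μM or 170 pg/ml-10 μg/ml. IC50 is the concentration halving proliferation versus untreated wells.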

The mark [2] stands for this setting: 120 h, 80S14 (p21-deficient) cells, 5 days, SRB, class symbols, read-out: IC50 for 80S14.
Where [3] appears, read: Homo sapiens, 96 h, Cellular activity in LoVo cell, 4 days incubation, SRB.
The mark [4] stands for this setting: 80S14, 120 h, read-out: IC50 for 80S14 (uM).

Regarding `Nc1cc(-c2ccnc3c(C(=O)c4cccs4)cnn23)cs1` [Example 331, [7-(5-Aminothien-3-yl)pyrazolo[1,5-a]pyrimidin-3-yl](thien-2-yl)methanone], the IC50 is 1 to 10 µM in experiment [1] (setting [2]) and 1000 to 20000 nM in the experiment with LoVo Colon cell line (setting [3]).

Take `CCOC(=S)Nc1cccc(-c2ccnc3c(C(=O)c4cccs4)cnn23)c1` [Example 332, O-Ethyl 3-[3-(thien-2-ylcarbonyl)pyrazolo[1,5-a]pyrimidin-7-yl]phenylthiocarbamate]: the IC50 is < 1 µM in experiment [1] (setting [2]) and < 100 nM with LoVo Colon cell line (setting [3]).

Turning to `O=C(c1cccs1)c1cnn2c(-c3cccc(NC(=S)Nc4ccccc4)c3)ccnc12` [Example 334, N-Phenyl-N′-{3-[3-(thien-2-ylcarbonyl)pyrazolo[1,5-a]pyrimidin-7-yl]phenyl}thiourea], the IC50 in experiment [1] (setting [2]) is < 1 µM; with LoVo Colon cell line (setting [3]), 100 to 1000 nM.

`CC(C)OC(=O)Nc1ccc(Cl)c(-c2ccnc3c(C(=O)c4cccs4)cnn23)c1` [Example 335, Isopropyl 4-chloro-3-[3-(thien-2-ylcarbonyl)pyrazolo[1,5-a]pyrimidin-7-yl]phenylcarbamate]: the IC50 in experiment [1] (setting [4]) was < 1 µM; in the experiment on LoVo Colon cell line (Homo sapiens, LoVo, 96 h), 100 to 1000 nM.

For `O=C(c1nccs1)c1cnn2c(-c3cccc(NC(=O)C4CC4)c3)ccnc12` [Example 338, N-{3-[3-(1,3-Thiazol-2-ylcarbonyl)pyrazolo[1,5-a]pyrimidin-7-yl]phenyl}cyclopropanecarboxamide], the values for the IC50 (in experiment [1] (setting [2]); with LoVo Colon cell line (setting [3])) were 1 to 10 µM and 100 to 1000 nM, respectively.

Consider `CC(C)CC(=O)Nc1ccc(Cl)c(-c2ccnc3c(C(=O)c4cccs4)cnn23)c1` [Example 339, N-{4-Chloro-3-[3-(thien-2-ylcarbonyl)pyrazolo[1,5-a]pyrimidin-7-yl]phenyl}-3-methylbutanamide], for which the IC50 was 1 to 10 µM in experiment [1] (setting [4]) and 100 to 1000 nM in the experiment with LoVo Colon cell line (Homo sapiens, LoVo, 96 h).

Consider `O=C(Nc1ccc(Cl)c(-c2ccnc3c(C(=O)c4cccs4)cnn23)c1)c1ccccc1` [Example 341, N-{4-Chloro-3-[3-(thien-2-ylcarbonyl)pyrazolo[1,5-a]pyrimidin-7-yl]phenyl}benzamide], for which the IC50 in experiment [1] (setting [2]) is 1 to 10 µM; in the experiment with LoVo Colon cell line (setting [3]), 100 to 1000 nM.

Consider `CC(C)CC(=O)Nc1cc(-c2ccnc3c(C(=O)c4cccs4)cnn23)ccc1F` [Example 342, N-{2-Fluoro-5-[3-(thien-2-ylcarbonyl)pyrazolo[1,5-a]pyrimidin-7-yl]phenyl}-3-methylbutanamide], for which the IC50 is < 1 µM in experiment [1] (setting [4]) and < 100 nM in the experiment on LoVo Colon cell line (Homo sapiens, LoVo, 96 h).

For the compound `CC(C)CC(=O)Nc1ccc(-c2ccnc3c(C(=O)c4cccs4)cnn23)s1` [Example 343, 3-Methyl-N-{5-[3-(thien-2-ylcarbonyl)pyrazolo[1,5-a]pyrimidin-7-yl]thien-2-yl}butanamide], the IC50 in experiment [1] (setting [2]) fell in the range of 1 to 10 µM; in the experiment with LoVo Colon cell line (setting [3]) it was 1000 to 20000 nM.

Turning to `CC(C)OC(=O)Nc1ccc(-c2ccnc3c(C(=O)c4cccs4)cnn23)s1` [Example 344, Isopropyl 5-[3-(thien-2-ylcarbonyl)pyrazolo[1,5-a]pyrimidin-7-yl]thien-2-ylcarbamate], the figures for the IC50 (in experiment [1] (setting [2]); in the experiment on LoVo Colon cell line (setting [3])) were 1 to 10 µM and 1000 to 20000 nM, respectively.

`Nc1ccc(-c2ccnc3c(C(=O)c4cccs4)cnn23)s1` [Example 345, [7-(5-Aminothien-2-yl)pyrazolo[1,5-a]pyrimidin-3-yl](thien-2-yl)methanone]: the IC50 fell in the range of 10 to 50 µM in experiment [1] (setting [2]) and 1000 to 20000 nM with LoVo Colon cell line (setting [3]).

For the compound `O=C(CCCCl)Nc1cccc(-c2ccnc3c(C(=O)c4cccs4)cnn23)c1` [Example 346, 4-Chloro-N-{3-[3-(thien-2-ylcarbonyl)pyrazolo[1,5-a]pyrimidin-7-yl]phenyl}butanamide], the values for the IC50 (in experiment [1] (setting [2]); in the experiment on LoVo Colon cell line (setting [3])) were 1 to 10 µM and 100 to 1000 nM, respectively.

In the case of `CC(C)OC(=O)Nc1cc(-c2ccnc3c(C(=O)c4cccs4)cnn23)ccc1F` [Example 347, Isopropyl 2-fluoro-5-[3-(thien-2-ylcarbonyl)pyrazolo[1,5-a]pyrimidin-7-yl]phenylcarbamate], the IC50 in experiment [1] (setting [4]) was < 1 µM; in the experiment on LoVo Colon cell line (Homo sapiens, LoVo, 96 h), < 100 nM.

Consider `CC(C)OC(=O)Nc1cc(-c2ccnc3c(C(=O)c4cccs4)cnn23)ccc1N(C)C` [Example 348, Isopropyl 2-(dimethylamino)-5-[3-(thien-2-ylcarbonyl)pyrazolo[1,5-a]pyrimidin-7-yl]phenylcarbamate], for which the values for the IC50 (in experiment [1] (setting [2]); in the experiment on LoVo Colon cell line (setting [3])) were 1 to 10 µM and 100 to 1000 nM, respectively.

Turning to `O=C(c1cccs1)c1cnn2c(-c3cccc(NCc4ccccc4)c3)ccnc12` [Example 349, {7-[3-(Benzylamino)phenyl]pyrazolo[1,5-a]pyrimidin-3-yl}(thien-2-yl)methanone], the IC50 in experiment [1] (setting [2]) is 1 to 10 µM; with LoVo Colon cell line (setting [3]) it was 100 to 1000 nM.

Consider `CC(C)CC(=O)Nc1cc(-c2ccnc3c(C(=O)c4cccs4)cnn23)cs1` [Example 351, 3-Methyl-N-{4-[3-(thien-2-ylcarbonyl)pyrazolo[1,5-a]pyrimidin-7-yl]thien-2-yl}butanamide], for which the IC50 in experiment [1] (setting [2]) lay within 1 to 10 µM; in the experiment with LoVo Colon cell line (setting [3]), 1000 to 20000 nM.

`Nc1cc(-c2ccnc3c(C(=O)c4cccs4)cnn23)ccc1F` [Example 352, [7-(3-Amino-4-fluorophenyl)pyrazolo[1,5-a]pyrimidin-3-yl](thien-2-yl)methanone]: the IC50 in experiment [1] (setting [2]) lay in the range of 1 to 10 µM; in the experiment with LoVo Colon cell line (setting [3]), 1000 to 20000 nM.

Take `O=C(Nc1cccc(-c2ccnc3c(C(=O)c4cccs4)cnn23)c1)NC1CCCCC1` [Example 353, N-Cyclohexyl-N′-{3-[3-(thien-2-ylcarbonyl)pyrazolo[1,5-a]pyrimidin-7-yl]phenyl}urea]: the IC50 is < 1 µM in experiment [1] (setting [2]) and < 100 nM in the experiment on LoVo Colon cell line (Cellular activity in LoVo cell, 4 days incubation, SRB).

Turning to `O=C(CCC(Cl)(Cl)Cl)Nc1cccc(-c2ccnc3c(C(=O)c4cccs4)cnn23)c1` [Example 354, 4,4,4-Trichloro-N-{3-[3-(thien-2-ylcarbonyl)pyrazolo[1,5-a]pyrimidin-7-yl]phenyl}butanamide], the IC50 in experiment [1] (setting [2]) was < 1 µM; in the experiment on LoVo Colon cell line (setting [3]), < 100 nM.

On to `CC(C)(C)CC(=O)Nc1cc(-c2ccnc3c(C(=O)c4cccs4)cnn23)ccc1F` [Example 355, N-{2-Fluoro-5-[3-(thien-2-ylcarbonyl)pyrazolo[1,5-a]pyrimidin-7-yl]phenyl}-3,3-dimethylbutanamide], for which the IC50 was < 1 µM in experiment [1] (setting [2]) and < 100 nM in the experiment with LoVo Colon cell line (setting [3]).

As for `CC(CC(=O)Nc1cc(-c2ccnc3c(C(=O)c4cccs4)cnn23)ccc1F)C(F)(F)F` (stereo not drawn) [Example 356, 4,4,4-Trifluoro-N-{2-fluoro-5-[3-(thien-2-ylcarbonyl)pyrazolo[1,5-a]pyrimidin-7-yl]phenyl}-3-methylbutanamide], the IC50 was < 1 µM in experiment [1] (setting [2]) and < 100 nM with LoVo Colon cell line (setting [3]).

`O=C(c1cccs1)c1cnn2c(-c3ccc(F)c(N(C(=O)OCC(Cl)(Cl)Cl)C(=O)OCC(Cl)(Cl)Cl)c3)ccnc12` [Example 357, bis(2,2,2-Trichloroethyl) 2-fluoro-5-[3-(thien-2-ylcarbonyl)pyrazolo[1,5-a]pyrimidin-7-yl]phenylimidodicarbonate]: the IC50 in experiment [1] (setting [2]) was < 1 µM; in the experiment with LoVo Colon cell line (setting [3]) it was < 100 nM.

With `O=C(Nc1cccc(-c2ccnc3c(C(=O)c4cccs4)cnn23)c1)c1c(F)cccc1F` [Example 359, 2,6-Difluoro-N-{3-[3-(thien-2-ylcarbonyl)pyrazolo[1,5-a]pyrimidin-7-yl]phenyl}benzamide], the IC50 in experiment [1] (setting [2]) is < 1 µM; with LoVo Colon cell line (setting [3]) it was < 100 nM.

Take `O=C(Nc1cccc(-c2ccnc3c(C(=O)c4cccs4)cnn23)c1)c1ccccn1` [Example 360, N-{3-[3-(Thien-2-ylcarbonyl)pyrazolo[1,5-a]pyrimidin-7-yl]phenyl}pyridine-2-carboxamide]: the results for the IC50 (in experiment [1] (setting [2]); with LoVo Colon cell line (setting [3])) were < 1 µM and < 100 nM, respectively.

For the compound `O=C(Nc1ccc(-c2ccnc3c(C(=O)c4cccs4)cnn23)s1)c1ccccc1` [Example 361, N-{5-[3-(Thien-2-ylcarbonyl)pyrazolo[1,5-a]pyrimidin-7-yl]thien-2-yl}benzamide], the IC50 in experiment [1] (setting [2]) was 10 to 50 µM; with LoVo Colon cell line (setting [3]), 1000 to 20000 nM.

For the compound `O=C(c1cccs1)c1cnn2c(-c3cccc(NCCc4ccccc4)c3)ccnc12` [Example 362, (7-{3-[(2-Phenylethyl)amino]phenyl}pyrazolo[1,5-a]pyrimidin-3-yl)(thien-2-yl)methanone], the IC50 in experiment [1] (setting [2]) lay within 10 to 50 µM; in the experiment with LoVo Colon cell line (setting [3]) it was 1000 to 20000 nM.

As for `COc1ccccc1CNc1cccc(-c2ccnc3c(C(=O)c4cccs4)cnn23)c1` [Example 363, (7-{3-[(2-Methoxybenzyl)amino]phenyl}pyrazolo[1,5-a]pyrimidin-3-yl)(thien-2-yl)methanone], the values for the IC50 (in experiment [1] (setting [2]); with LoVo Colon cell line (setting [3])) were 10 to 50 µM and 100 to 1000 nM, respectively.

Consider `CCCCNC(=S)Nc1cccc(-c2ccnc3c(C(=O)c4cccs4)cnn23)c1` [Example 364, N-Butyl-N′-{3-[3-(thien-2-ylcarbonyl)pyrazolo[1,5-a]pyrimidin-7-yl]phenyl}thiourea], for which the IC50 in experiment [1] (setting [2]) is < 1 µM; with LoVo Colon cell line (setting [3]), < 100 nM.

On to `O=C(c1cccs1)c1cnn2c(-c3cccc(NCc4cccc(Cl)c4)c3)ccnc12` [Example 365, (7-{3-[(3-Chlorobenzyl)amino]phenyl}pyrazolo[1,5-a]pyrimidin-3-yl)(thien-2-yl)methanone], for which the IC50 in experiment [1] (setting [2]) lay in the range of 10 to 50 µM; with LoVo Colon cell line (setting [3]) it was 1000 to 20000 nM.

As for `O=C(c1cccs1)c1cnn2c(-c3cccc(NCc4ccc(Cl)cc4)c3)ccnc12` [Example 366, (7-{3-[(4-Chlorobenzyl)amino]phenyl}pyrazolo[1,5-a]pyrimidin-3-yl)(thien-2-yl)methanone], the IC50 in experiment [1] (setting [2]) lay within 10 to 50 µM; in the experiment with LoVo Colon cell line (setting [3]), 1000 to 20000 nM.
